As usually defined, the Kd is the equilibrium constant for the complex coming apart. Low readings indicate higher affinity, high ones lower affinity.

Consider one compound from PMC9312917 (2022).

Common to all, as to assay: graphene oxide fluorescence assay
Common to all, as to conditions: 100 mM NaCl, 5 mM KCl, 2 mM MgCl2, 1 mM CaCl2; 20 mM Tris-HCl pH 7.5, room temperature; aptamer 0-400 nM titrated at fixed 1 µg/mL SQX

The subject of assay [1] is SBA28-1 (DNA, aptamer) CCCTAGGGG
In assay [2] the test system is SBA40-1 (DNA, aptamer) GGCTGACTGCT
The test system of assay [3] is SBA24-1 (DNA, aptamer) GCGTGAGC

For the compound `Nc1ccc(S(=O)(=O)Nc2cnc3ccccc3n2)cc1`, the Kd in assay [1] is given as 27.36 nM; in assay [2], 36.73 nM; in assay [3], 74.19 nM.
